Literature values in patent US20090062907A1, “Self-expanding valve for the venous system” (priority 2007, published 2009).

solubility in alcohol (alcohol): soluble
solubility in water (water): sparingly soluble
SMILES: C[C@H](CCC(=O)O)[C@H]1CC[C@H]2[C@@H]3CC[C@@H]4C[C@H](O)CC[C@]4(C)[C@H]3C[C@H](O)[C@]12C [Deoxycholic acid]
